From US20260060970A1, “Use of a Therapeutic Agent with Phosphodiesterase-7 Inhibitory Activity for the Treatment and Prevention of Diseases Associated with Chronic Fatigue, Exhaustion and/or Exertional Intolerance” (MITODICURE GMBH, priority 2022, published 2026)

Columns and labels:
PDE7A = target: T1, PDE7A (Homo sapiens, UniProt Q13946); test: PDE7 enzymatic assay, IC50 determination (PDE7A); assay type: biochemical; details: human recombinant enzyme, 0.1 μM FAM-cAMP, 30 min 25° C.
T1 construct: host or cells: Sf9 insect cells
T1 sequence (Q13946 whole entry): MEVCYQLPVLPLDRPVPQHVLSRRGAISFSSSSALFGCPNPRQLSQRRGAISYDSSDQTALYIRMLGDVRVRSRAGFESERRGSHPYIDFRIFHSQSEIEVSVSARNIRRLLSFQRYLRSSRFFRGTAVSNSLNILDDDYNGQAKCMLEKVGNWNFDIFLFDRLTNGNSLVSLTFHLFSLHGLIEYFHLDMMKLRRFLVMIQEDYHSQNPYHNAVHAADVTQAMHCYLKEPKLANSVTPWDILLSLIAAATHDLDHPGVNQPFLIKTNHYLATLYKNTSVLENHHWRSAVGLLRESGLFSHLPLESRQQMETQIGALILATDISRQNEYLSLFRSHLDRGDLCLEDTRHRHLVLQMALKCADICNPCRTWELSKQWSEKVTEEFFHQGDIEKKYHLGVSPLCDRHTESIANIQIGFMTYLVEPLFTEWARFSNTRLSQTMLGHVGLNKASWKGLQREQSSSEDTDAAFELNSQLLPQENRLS
Experimental: (§1) The ability of compounds to inhibit PDE7 may be measured using the following assay protocal: Assay methods for IC50 determination of PDE7 and variants involve as enzyme source human recombinant insect Sf9 cells. The substrate is 0.1 μM FAM-cAMP and the vehicle is 1.0% DMSO or 1.0% PEG 400. Pre-incubation time and temperature are 15 minutes at 25° C. and incubation time and temperature are 30 minutes at 25° C. The incubation buffer consists of 10 mM Tris-HCl, PH 7.2, 10 mM MgCl2, 0.05% NaN3, and 0.1% phosphate-free BSA. The quantitation method used is spectrofluorimetric quantitation of Fluorescein-AMP-IMAP. IBMX reference standards are run as an integral part of each assay to ensure the validity of the results obtained. The IC50 is the concentration of the compound (inhibitor) tested in the assay which makes it possible to reduce the enzymatic activity of PDE7 by 50%. IC50 values are finally determined by a non-linear, least squares regression analysis using MathIQ™ (ID Business Solutions Ltd., UK).
(§2) The compounds to be tested as PDE7 inhibitors were initially dissolved in vehicle at a concentration of 30 mM. These solutions were tested as the highest test concentration and then further diluted in cascade always in a ratio of 1:6 to obtain solutions with the desired lower test concentrations. Each assay was carried out in duplicate.

PDE7 = PDE7 enzymatic assay, IC50 determination (PDE7); assay type: biochemical; details: human recombinant enzyme, 0.1 μM FAM-cAMP, 30 min 25° C.
Experimental: as §1, §2

PDE7B = target: T2, PDE7B (Homo sapiens, UniProt Q9NP56); test: PDE7 enzymatic assay, IC50 determination (PDE7B); assay type: biochemical; details: human recombinant enzyme, 0.1 μM FAM-cAMP, 30 min 25° C.
T2 construct: host or cells: Sf9 insect cells
T2 sequence (Q9NP56 whole entry): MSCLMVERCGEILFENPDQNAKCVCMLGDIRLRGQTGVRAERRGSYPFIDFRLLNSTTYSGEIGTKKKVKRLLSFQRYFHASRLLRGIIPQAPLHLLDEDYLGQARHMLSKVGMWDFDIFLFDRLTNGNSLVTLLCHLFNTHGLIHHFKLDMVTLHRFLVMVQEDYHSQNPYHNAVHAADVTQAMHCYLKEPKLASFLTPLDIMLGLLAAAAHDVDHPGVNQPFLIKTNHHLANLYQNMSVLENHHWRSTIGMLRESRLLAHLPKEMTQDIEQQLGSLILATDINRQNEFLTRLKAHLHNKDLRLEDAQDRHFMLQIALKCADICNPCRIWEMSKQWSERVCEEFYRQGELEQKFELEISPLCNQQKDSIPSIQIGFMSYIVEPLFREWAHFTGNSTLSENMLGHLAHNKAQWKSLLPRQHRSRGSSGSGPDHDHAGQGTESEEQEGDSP
Experimental: as §1, §2

[1] = system: isolated rat soleus muscle; test: Ex vivo model: residual contractile force of isolated rat soleus muscle in high KCl buffer (Na+/K+ATPase activation); details: for Mean residual contractile force in % (SEM in %): after 30 min in KCl 12.5 mM buffer
Text: Muscular fatigue and loss of force (e.g., loss of handgrip strength) is a hallmark in ME/CFS patients. A main target of PDE7 inhibition is the skeletal muscle whose energetic function is deeply disturbed in ME/CFS and which is presumed to be very important in the symptomatology of ME/CFS. Insufficient stimulation of the Na^+/K^+ATPase plays a key role in the development of the disturbances by a rise in intramuscular sodium that finally leads to calcium overload. The latter causes a deep functional energetic disturbance or damage. The isolated rat muscle either soleus muscle or extensor digitorum longus muscle is a well-characterized and well-validated model for the study of the function of the Na^+/K^+ATPase. The isolated rat soleus muscle is particularly appropriate for experiments ex vivo as it is very thin so that there is no need for blood supply. […] In the experimental setting used, the high KCl concentration buffer causes partial depolarization that leads to sodium influx to disturb and to decrease excitability to subsequently reduce muscle force. Stimulation of Na^+/K^+ATPase lowers intracellular sodium levels towards physiological levels to restore excitability and muscular force during electrical stimulation.
The decline in force in the soleus muscle can be considered as muscular fatigue and related to the loss of hand grip muscular strength in ME/CFS patients. As the phosphodiesterase isoenzyme subtype 7 (PDE7) is the predominant PDE isoenzyme in skeletal muscle to raise cAMP this ex vivo model is suited for the testing the effect of PDE7 inhibitors and in particular their effect on force generation disturbed by mechanisms that worsen excitability or the energetic situation. […] High level activity of Na^+/K^+ATPase stimulated by cAMP can counteract the decrease in excitability and the loss of force.
Muscle preparation and incubation: Female Sprague Dawley rats of 5 weeks of age were used. After isoflurane anesthesia and cervical dislocation the intact soleus muscles of the animals were dissected. The soleus muscles were mounted at resting length in a vertical position between two field stimulation electrodes (thick copper wires) in organ bathes containing 15 mL incubation medium. The lower end of the muscle was fixed to a clip fixed to the bottom of the organ bath, the upper end of the muscle was fixed to an isometric force transducer (Force transducer K300 Hugo Sachs) by a clip allowing measurement of isometric contractions, and a tension of 100 mN was applied.
Force measurement: The experimental set-up used for force measurements allowed for the simultaneous recordings from 6 muscles in separate incubation chambers in parallel. Force was recorded and stored with a Notocord HEM data acquisition system. […] Incubation took place at 30° C. […] Electrical stimulation protocol: After an equilibration period of 30 min muscles were field-stimulated to deliver optimal force at 83 Hz, 2-3 ms pulses, 12 V (biphasic), 0.2-0.5 s train width with a Hugo Sachs stimulator (HSE). […] Stimulations were then performed every 5 min for 30 min. […] Two control groups were included.
The residual contractile force after 30 min in high KCl buffer was chosen as the efficacy parameter and related to the last value of stimulated force in the initial buffer in the same organ bath. The percentages of residual force were compared between the different groups and used for statistical calculation.

PDE7 enzyme = details: cited from earlier work

Compound	IC50 (PDE7A)	IC50 (PDE7)	also measured
CC(C)Cn1c(=O)n(C)c(=O)c2[nH]cnc21 [IBMX, 3-isobutyl-1-methylxanthine, reference compound]	10000 nM		
O=CN1CCC(n2c(=O)n(Cc3ccc(-c4cccs4)cc3)c(=O)c3cc(OC(CF)CF)c(F)cc32)CC1 [Formula No. 55J]		< 100 nM	
Cc1nn(C2CCCCC2)c2sc(C(=O)Nc3ccc(N4CCNC4=O)nc3)cc12 [Formula No. 6A]		20 nM	
O=C1Nc2c(Cl)ccc(Oc3ccccc3-c3nnn[nH]3)c2C2(CCCCC2)N1 [Formula No. 35A]	0.3 nM		IC50 (PDE7B): 0.9 nM
OCCN(CCO)c1nc(N2CCCCC2)c2nc(N(CCO)CCO)nc(N3CCCCC3)c2n1 [Dipyridamole, 2,2′,2″,2′″-[[4,8-Di(piperidin-1-yl)pyrimido[5,4-d]pyrimidine-2,6-diyl]dinitrilo]tetraethanol, reference compound]	42000 nM		Mean residual contractile force in % (SEM in %) ([1]; 30 μM in the presence of salbutamol 1 μM): 46.3 (6.3); n = 15; p < 0.01%; effect on residual contractile force compared with salbutamol alone ([1]; test compound plus salbutamol 1 μM, KCl 12.5 mM buffer): numerically stronger effect than salbutamol alone
COc1ccc(Cn2c(=O)c3cc(OC(CF)CF)c(F)cc3n(C3CCN(C=O)CC3)c2=O)cc1OC [Formula No. 55E]	14.2 nM		IC50 (PDE7B): 83 nM; Mean residual contractile force in % (SEM in %) ([1]; 29 nM in the presence of salbutamol 1 μM): 69.3 (4.1); n = 5; p < 0.01%
Cc1nn(C2CCCCC2)c2sc(C(=O)Nc3ccc(C(=O)N(C)C)cc3)cc12 [Formula No. 6C]		14 nM	
COc1ccc(C2CNC(=O)C2)cc1OC1CCCC1 (stereo not shown) [rolipram]			inhibition of PDE7 by rolipram (PDE7 enzyme): not inhibited
CC(=O)Nc1ccc(NC(=O)c2cc3c(C)nn(C4CCCCC4)c3s2)cc1 [Formula No. 6D]		37 nM	
CC(C)(C)NCC(O)c1ccc(O)c(CO)c1 (stereo not shown) [Salbutamol, reference compound]			Mean residual contractile force in % (SEM in %) ([1]; salbutamol alone 1 μM): 26.5 (3.9); n = 30%
Cc1nn(C2CCOCC2)c2sc(C(=O)N[C@H]3CC[C@H](N4CCOCC4)CC3)cc12 [Formula No. 6E]		24 nM	
CC(=O)N1CCN([C@H]2CC[C@H](NC(=O)c3cc4c(C)nn(C5CCOCC5)c4s3)CC2)CC1 [Formula No. 6F]		19 nM	
Cc1nn(C2CCCCC2)c2sc(C(=O)N[C@H](C)CN3C(=O)CNC3=O)cc12 [Formula No. 6H]		34 nM	
CNC(=O)c1ccc(NC(=O)c2cc3c(C)nn(C4CCCCC4)c3s2)cn1 [Formula No. 6B]	11.1 nM	33 nM	IC50 (PDE7B): 53 nM; Mean residual contractile force in % (SEM in %) ([1]; 0.99 μM in the presence of salbutamol 1 μM): 50.7 (3.6); n = 6; p < 0.05%
O=C1Nc2c(Cl)ccc(O[C@H]3C[C@H](C(=O)O)C3)c2C2(CCCCC2)N1 [Formula No. 44A]	26 nM		IC50 (PDE7B): 72 nM; Mean residual contractile force in % (SEM in %) ([1]; 26 nM in the presence of salbutamol 1 μM): 63.5 (7.8); n = 6; p < 0.01%
Cc1ccc([N+](=O)[O-])cc1S(=O)(=O)N(C)C [Formula No. 8A]			Mean residual contractile force in % (SEM in %) ([1]; 4.5 μM in the presence of salbutamol 1 μM): 80.2 (6.0); n = 15; p < 0.001%
Cc1nn(C2CCCCC2)c2sc(C(=O)NCC(C)(C)CN3C(=O)CNC3=O)cc12 [Formula No. 6G]		20 nM	
S=c1[nH]c2ccccc2c(=S)n1-c1ccccc1 [Formula No. 42A, 3-phenyl-2,4(1H,3H)-quinazolinedithione]			Mean residual contractile force in % (SEM in %) ([1]; 3.5 μM in the presence of salbutamol 1 μM): 48.5 (8.6); n = 7; p < 0.05%
